The values below are quoted from earlier work in patent US20240374563A1, “ANTICHOLINERGIC COMPOUNDS FOR USE IN TREATING NEUROMUSCULAR DISORDERS” (UNIVERSITY OF MONTRÉAL, priority 2022, published 2024).

The test system of the data set is ALS patients. Particulars: cited from earlier work.

`Nc1nc2ccc(OC(F)(F)F)cc2s1` [Riluzole]: the “share of ALS patients who benefit” value is listed as 20%.
